Read-outs that look alike come from different tables or passages of the source.

Experiment [1] deals with CPS1. The experiment in a line: RNA-seq of compound-treated primary human hepatocytes, CPS1 expression. Type of experiment: cell-based. The note with it: primary human hepatocytes; for CPS1 expression, Fold change (Log 2) vs untreated: RNA-seq; for Relative CPS1 level vs Untreated (±Standard Deviation): triplicate (Table 19, FIG. 11).
A further experiment deals with urea cycle genes. The experiment is described as follows: RNA-seq of primary human hepatocytes, compounds that modulate multiple urea cycle-related genes. Type of experiment: cell-based. As to conditions: primary human hepatocytes, RNA-seq; for Up-regulated Genes: urea cycle-related genes significantly increased (Table 10).
In the next experiment the test system is ARG1. The experiment is described as follows: RNA-seq of compound-treated primary human hepatocytes, ARG1 expression. In kind it is cell-based. As to conditions: primary human hepatocytes; for Fold change (Log 2) vs untreated, ARG1 expression: RNA-seq (Table 7).
In experiment [2] the test system is OTC. The experiment is described as follows: RNA-seq of compound-treated primary human hepatocytes, OTC expression. In kind it is cell-based. The note with it: primary human hepatocytes, RNA-seq.
Experiment [3] has as its system OTC. The experiment is described as follows: JAK inhibitors at 0.3 and 3 μM in primary human hepatocytes, OTC mRNA fold change. As to conditions: fold change vs DMSO. In kind it is cell-based. As to the method: (§1) Additional small molecules that inhibit JAK1, JAK2, JAK3, or a combination of the JAK proteins were tested in primary human hepatocytes as described in Example 2. JAK inhibitors were tested in triplicate at 0.3 μM and 3 μM. The results are shown as the fold change (mRNA FC) in the mRNA levels of OTC and CPS1 genes after treatment compared to an untreated control (DMSO) and the standard deviation (SD).

The test system of experiment [4] is CPS1. The experiment is described as follows: JAK inhibitors at 0.3 and 3 μM in primary human hepatocytes, CPS1 mRNA fold change. In kind it is cell-based. The note with it: fold change vs DMSO. As for the experimental part: as §1
The subject of a further experiment is ASS1. The experiment in a line: RNA-seq of compound-treated primary human hepatocytes, ASS1 expression. As to conditions: primary human hepatocytes, triplicate (Table 15, FIG. 7). Type of experiment: cell-based.
The subject of a further experiment is NAGS. Type of experiment: cell-based, human. The note with it: primary human hepatocytes, triplicate (Table 21, FIG. 13).
The test system of the next experiment is SLC25A15. The experiment is described as follows: RNA-seq of compound-treated primary human hepatocytes, SLC25A15 expression. Type of experiment: cell-based. The note with it: primary human hepatocytes, triplicate (Table 24, FIG. 16A-B).

As to “EGF: Epidermal Growth Factor, a polypeptide growth factor”, the “CPS1 expression, Fold change (Log 2) vs untreated” value with CPS1 [1] is reported as 1.93 Log 2. In addition, in the experiment with urea cycle genes, the “number of urea cycle genes whose expression was significantly up-regulated” value is recorded as “three” and the “Up-regulated Genes” value is recorded as “CPS1, OTC, ARG1”. Further, the “Fold change (Log 2) vs untreated, ARG1 expression” value with ARG1 is 1.46 Log 2. In addition, in the experiment with OTC [2], the “OTC expression, Fold change (Log 2) vs untreated” value was 0.64 Log 2.

On to `O=C(Nc1c[nH]nc1-c1nc2ccc(CN3CCOCC3)cc2[nH]1)NC1CC1` [AT9283], for which the “OTC mRNA FC” value was 1.56 in the experiment on OTC [3] (0.3 uM) and 0.56 with OTC [3] (3 uM). The “Relative CPS1 level vs Untreated (±Standard Deviation)” value in the experiment on CPS1 [1] (3 μM) came out at 2.35 ± 0.15; in the experiment with CPS1 [1] (10 μM), 1.53 ± 0.33. The “CPS1 mRNA FC” value in the experiment with CPS1 [4] (0.3 uM) was found to be 1.53; in the experiment on CPS1 [4] (3 uM) it was 1.05. The “Relative ASS1 level vs Untreated (±Standard Deviation)” value amounted to 1.40 ± 0.43 in the experiment on ASS1 (3 μM) and 2.48 ± 0.79 in the experiment with ASS1 (10 μM). The “Relative NAGS level vs Untreated (±Standard Deviation)” value in the experiment with NAGS (0.3 μM) is reported as 1.43 ± 0.38; in the experiment with NAGS (1 μM), 1.49 ± 0.10; with NAGS (3 μM), 1.38 ± 0.07. For the same molecule, the “Relative ARGI level vs Untreated (±Standard Deviation)” value in the experiment with ARG1 (10 μM, triplicate (Table 17, FIG. 9)) was determined as 1.70 ± 0.16. For the same molecule, the results for the “Relative SLC25A15 level vs Untreated (±Standard Deviation)” value in the experiment on SLC25A15 (1 μM), in the experiment on SLC25A15 (3 μM) and in the experiment with SLC25A15 (10 μM) were 1.78 ± 0.04, 2.56 ± 1.37 and 2.94 ± 0.98, respectively.

Take “FGF: Fibroblast Growth Factor-acidic (FGF-acidic), also known as FGF-1”: the “CPS1 expression, Fold change (Log 2) vs untreated” value in the experiment on CPS1 [1] is on record as 1.72 Log 2. In the experiment with urea cycle genes, the “number of urea cycle genes whose expression was significantly up-regulated” value was “three” and the “Up-regulated Genes” value was “CPS1, OTC, ARG1”. For the same molecule, the “Fold change (Log 2) vs untreated, ARG1 expression” value in the experiment with ARG1 is reported as 1.24 Log 2. Moreover, in the experiment on OTC [2], the “OTC expression, Fold change (Log 2) vs untreated” value is listed as 0.56 Log 2.

B1: Wnt3a: secreted signaling protein of the WNT gene family (protein, UniProt P56704 19-352, looked up)
Protein Wnt-3a: SYPIWWSLAVGPQYSSLGSQPILCASIPGLVPKQLRFCRNYVEIMPSVAEGIKIGIQECQHQFRGRRWNCTTVHDSLAIFGPVLDKATRESAFVHAIASAGVAFAVTRSCAEGTAAICGCSSRHQGSPGKGWKWGGCSEDIEFGGMVSREFADARENRPDARSAMNRHNNEAGRQAIASHMHLKCKCHGLSGSCEVKTCWWSQPDFRAIGDFLKDKYDSASEMVVEKHRESRGWVETLRPRYTYFKVPTERDLVYYEASPNFCEPNPETGSFGTRDRTCNVSSHGIDGCDLLCCGRGHNARAERRREKCRCVFHWCCYVSCQECTRVYDVHTCK
Take B1: in the experiment with CPS1 [1], the “CPS1 expression, Fold change (Log 2) vs untreated” value came to 2.6 Log 2. In addition, in the experiment with urea cycle genes, the “number of urea cycle genes whose expression was significantly up-regulated” value was “four” and the “Up-regulated Genes” value was “CPS1, OTC, ARG1, SLC25A15”. For the same molecule, the “Fold change (Log 2) vs untreated, ARG1 expression” value in the experiment on ARG1 came out at 2.07 Log 2. For the same molecule, the “OTC expression, Fold change (Log 2) vs untreated” value in the experiment on OTC [2] turned out to be 0.92 Log 2.

B2: Nodal: 13 kDa member of the TGF-B superfamily (protein, UniProt Q96S42 238-347, looked up)
Nodal homolog: HHLPDRSQLCRKVKFQVDFNLIGWGSWIIYPKQYNAYRCEGECPNPVGEEFHPTNHAYIQSLLKRYQPHRVPSTCCAPVKTKPLSMLYVDNGRVLLDHHKDMIVEECGCL
For B2, the “CPS1 expression, Fold change (Log 2) vs untreated” value in the experiment on CPS1 [1] was 2.44 Log 2. In addition, in the experiment on urea cycle genes, the “number of urea cycle genes whose expression was significantly up-regulated” value is recorded as “three” and the “Up-regulated Genes” value is “CPS1, OTC, ARG1”. In addition, in the experiment with ARG1, the “Fold change (Log 2) vs untreated, ARG1 expression” value is recorded as 2.05 Log 2. Also, the “OTC expression, Fold change (Log 2) vs untreated” value with OTC [2] amounted to 0.68 Log 2.
